Legend:
mAOX3 = target: T1, mAOX3 (Mus musculus, UniProt G3X982); assay: DCPIP reduction at […] nm, steady-state kinetics; assay type: biochemical; conditions: 100 μM DCPIP as electron acceptor, 50 mM Tris-HCl, 1 mM EDTA, pH 8.0, 37°C, corrected to 100% Mo saturation
T1 construct: gene Aox3; recombinant from E. coli TP1000 (plasmid pMMA1), Ni-NTA and Superdex 200 purified, chemically sulfurated, dimer (300 kDa)
T1 sequence (G3X982 1-1335): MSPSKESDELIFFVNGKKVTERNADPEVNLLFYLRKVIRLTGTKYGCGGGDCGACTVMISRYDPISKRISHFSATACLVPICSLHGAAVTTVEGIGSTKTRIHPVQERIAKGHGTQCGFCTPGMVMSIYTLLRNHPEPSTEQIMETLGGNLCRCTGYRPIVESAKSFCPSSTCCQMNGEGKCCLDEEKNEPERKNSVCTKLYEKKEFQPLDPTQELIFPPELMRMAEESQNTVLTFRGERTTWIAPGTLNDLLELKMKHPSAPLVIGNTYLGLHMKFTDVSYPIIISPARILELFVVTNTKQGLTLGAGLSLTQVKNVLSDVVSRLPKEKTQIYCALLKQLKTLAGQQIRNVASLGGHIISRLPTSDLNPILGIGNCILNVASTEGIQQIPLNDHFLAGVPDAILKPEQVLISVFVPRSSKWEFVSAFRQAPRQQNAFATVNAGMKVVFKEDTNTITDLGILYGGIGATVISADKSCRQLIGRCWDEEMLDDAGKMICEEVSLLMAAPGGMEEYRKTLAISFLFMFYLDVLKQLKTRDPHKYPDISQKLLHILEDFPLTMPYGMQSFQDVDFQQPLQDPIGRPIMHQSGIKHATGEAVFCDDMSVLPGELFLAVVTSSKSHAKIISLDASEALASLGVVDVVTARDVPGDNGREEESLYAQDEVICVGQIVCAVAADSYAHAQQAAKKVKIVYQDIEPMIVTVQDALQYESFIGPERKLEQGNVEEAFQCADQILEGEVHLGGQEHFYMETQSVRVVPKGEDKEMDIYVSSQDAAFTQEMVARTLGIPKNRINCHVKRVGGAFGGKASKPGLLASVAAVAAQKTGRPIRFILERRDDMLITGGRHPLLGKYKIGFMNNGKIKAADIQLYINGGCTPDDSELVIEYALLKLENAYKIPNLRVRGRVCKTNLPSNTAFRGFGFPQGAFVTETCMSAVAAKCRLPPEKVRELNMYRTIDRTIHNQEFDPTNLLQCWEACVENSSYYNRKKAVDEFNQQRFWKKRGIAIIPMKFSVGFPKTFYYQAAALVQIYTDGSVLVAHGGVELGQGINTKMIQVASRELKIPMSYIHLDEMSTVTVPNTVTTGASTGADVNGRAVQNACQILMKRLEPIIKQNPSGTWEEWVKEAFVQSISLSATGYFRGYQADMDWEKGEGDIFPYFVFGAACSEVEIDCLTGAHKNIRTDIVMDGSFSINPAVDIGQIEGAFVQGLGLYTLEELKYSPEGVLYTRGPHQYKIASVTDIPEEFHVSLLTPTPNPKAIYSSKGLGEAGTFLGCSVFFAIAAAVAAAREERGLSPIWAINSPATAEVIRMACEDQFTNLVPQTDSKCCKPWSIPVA

mAOX2 = target: T2, mAOX2 (Mus musculus, UniProt Q5SGK3); assay: DCPIP reduction at […] nm, steady-state kinetics; assay type: biochemical; conditions: 100 μM DCPIP as electron acceptor, 50 mM Tris-HCl, 1 mM EDTA, pH 8.0, 37°C, corrected to 100% Mo saturation
T2 construct: gene Aox2; recombinant from E. coli TP1000 (codon-optimized plasmid pMAOX2co), Ni-NTA and Superdex 200 purified, chemically sulfurated, dimer (300 kDa)
T2 sequence (Q5SGK3 1-1345): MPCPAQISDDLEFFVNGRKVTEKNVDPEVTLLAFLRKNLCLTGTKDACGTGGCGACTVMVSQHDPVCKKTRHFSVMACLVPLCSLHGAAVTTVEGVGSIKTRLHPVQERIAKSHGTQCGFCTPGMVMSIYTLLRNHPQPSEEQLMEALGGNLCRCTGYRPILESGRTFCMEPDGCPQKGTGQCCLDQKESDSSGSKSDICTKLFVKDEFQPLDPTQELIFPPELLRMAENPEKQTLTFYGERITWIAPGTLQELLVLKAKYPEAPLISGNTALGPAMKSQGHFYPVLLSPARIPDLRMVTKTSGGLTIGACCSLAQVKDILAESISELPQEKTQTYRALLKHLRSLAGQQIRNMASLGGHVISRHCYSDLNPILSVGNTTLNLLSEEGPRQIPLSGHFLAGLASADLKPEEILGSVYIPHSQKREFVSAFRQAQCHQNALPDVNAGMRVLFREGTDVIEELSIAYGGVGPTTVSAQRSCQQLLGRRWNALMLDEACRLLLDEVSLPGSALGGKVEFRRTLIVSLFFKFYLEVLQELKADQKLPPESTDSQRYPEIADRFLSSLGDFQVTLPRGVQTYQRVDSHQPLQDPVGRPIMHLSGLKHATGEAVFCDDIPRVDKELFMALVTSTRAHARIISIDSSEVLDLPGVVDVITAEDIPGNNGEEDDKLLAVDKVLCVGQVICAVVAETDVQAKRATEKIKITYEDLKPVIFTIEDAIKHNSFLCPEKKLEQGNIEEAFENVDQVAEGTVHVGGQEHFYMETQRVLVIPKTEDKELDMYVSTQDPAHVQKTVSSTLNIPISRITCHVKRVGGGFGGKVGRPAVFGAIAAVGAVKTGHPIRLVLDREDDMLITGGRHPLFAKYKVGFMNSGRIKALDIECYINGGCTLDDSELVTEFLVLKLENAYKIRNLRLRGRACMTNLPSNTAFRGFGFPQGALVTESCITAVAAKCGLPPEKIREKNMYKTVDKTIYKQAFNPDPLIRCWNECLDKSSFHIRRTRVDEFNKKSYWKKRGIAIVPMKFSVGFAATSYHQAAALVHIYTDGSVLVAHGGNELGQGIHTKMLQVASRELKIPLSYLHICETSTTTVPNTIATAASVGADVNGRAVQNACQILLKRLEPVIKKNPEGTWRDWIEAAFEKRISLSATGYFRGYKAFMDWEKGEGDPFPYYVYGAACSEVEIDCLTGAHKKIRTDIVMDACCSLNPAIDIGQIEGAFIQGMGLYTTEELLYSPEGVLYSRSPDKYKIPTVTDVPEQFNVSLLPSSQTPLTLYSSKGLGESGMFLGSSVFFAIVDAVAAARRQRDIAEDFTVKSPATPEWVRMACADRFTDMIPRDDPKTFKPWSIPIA

[1] = limit given jointly for mAOX3, mAOX4 and mAOX2

Row | Km (mAOX3; range printed jointly for mAOX3, mAOX4 and mAOX2) [mM] | Km (mAOX2) [mM] | Km (mAOX3; [1]) [mM] | Km (mAOX2; [1]) [mM] | Compound
1 | 4.4 to 4.6 | 4.4 to 4.6 |  |  | CC=O [acetaldehyde]
2 |  |  | < 0.002 | < 0.002 | O=Cc1ccc(O)cc1 [4-hydroxybenzaldehyde]

From paper PMC5784979, “Direct comparison of the four aldehyde oxidase enzymes present in mouse gives insight into their substrate specificities” (PLoS ONE, 2018)
